Measured values: patent EP1923473B1, “Bis-diglycolamides (BISDGA) as new extractants for lanthanides [Ln(III)] and actinides [An(III)] from aqueous high-level wastes” (Universidad Autónoma de Madrid, priority 2006, dated 2008)

Legend:
Type in all cases: physicochemical
[1] = Batch extraction from simulated HLLW from the PUREX process; settings: 0.1 mol/L in TPH/1-octanol (90:10)
Excerpt: (§1) The feed solution used for the extraction tests is a simulated solution of an HLLW from the PUREX process, the composition of which is shown in Table 4. Table 4: Composition of the simulated HLLW-PUREX solution used for the extraction tests
(§2) The composition of the HLLW corresponds to a burn-up of 33 GWd/tHM, the generated volume of HLLW being 5000 1/t of fuel. The feed was spiked with ^241Am, ^244Cm, ^252Cf and ^152Eu. Oxalic acid and N-(2-hydroxyethyl)ethylenediaminotriacetate (HEDTA) were also added before the extraction tests.
(§3) 500 µL of the aqueous and organic phases were spiked with 10 µL of a tracer solution containing 241Am, 244Cm, 252Cf and ^152Eu, and were equilibrated for 10 minutes while they were stirred vigorously in a vortex stirrer. After the separation of the phases by centrifugation, 200 µL aliquots of each phase were taken for the determination of the concentration of ^241Am and ^152Eu using a high-purity germanium spectrometer system (EG&G Ortec). The nuclides ^241Am, ^244Cm and ^252Cf were measured by alpha spectrometry with an α-Analyst device of the company Canberra-Packard GmbH, Germany.
(§4) The concentrations of the stable elements were determined by mass spectrometry with an inductively coupled plasma source (ICP-MS) in a DRC Elan 6100 device of Perkin Elmer Sciex. The aqueous phase was measured directly after the appropriate dilution. The organic phase was analyzed after having mineralized the organic matter by microwave acid digestion and subsequent dilution.
(§5) The distribution coefficients were calculated for each element according to section C).
(§6) Extraction experiments were carried out with said simulated HLLW in a pure form and also adding oxalic acid and HEDTA to it.

Radiolytic stability = settings: 60Co irradiation, 4 kGy/h, up to 1000 kGy
Experimental: The tests of stability against irradiation were carried out in the NAYADE facility at CIEMAT site, with external ^60Co sources with an approximate activity of 5000 Ci, with a homogeneous irradiation flux. The dose rate applied in all the experiments was 4 kGy/h and integrated doses of 250 kGy, 500 kGy, 750 kGy and 1000 kGy were considered. The irradiation device consists of a metal cylinder which is introduced in a rack wherein the ^60CO sources are placed radially, such that the irradiation is homogeneous. The irradiation process is carried out submersing the device in a pool of water with a depth of 4 meters.
Irradiation tests of the solid compound (in the absence of solvent) and of the compound dissolved in the "n-dodecane/1-octanol (95:5)%vol" mixture, equilibrated with 3 mol/L nitric acid, were carried out. The organic solutions were prepared and equilibrated as detailed in the previous sections A) and B).
Once each programmed integrated dose was reached, the extraction capability of the organic samples was evaluated as detailed in section C).
The irradiation of compound 4 in solid form (in the absence of solvent) and dissolved at a 0.1 mol/L concentration in the "n-dodecane/1-octanol 1 (95:5)%vol" mixture, equilibrated with 3 mol/L nitric acid, was carried out. […] After each integrated dose, the extraction capability of Am(III) and Eu(III) was evaluated as described in section C. […]

[2] = Batch extraction from simulated HLLW from the PUREX process; settings: 0.1 mol/L in TPH/1-octanol (90:10); remark: listed apart in the source
Excerpt: as §1, §2, §3, §4, §5
A 0.1 mol/L solution of compound 4 in the "TPH/1-octanol (90:10)%vol" mixture was prepared. Extraction experiments were carried out with said simulated HLLW in a pure form and also adding oxalic acid and HEDTA to it. These complexing agents have shown to be effective in the DIAMEX process for the complexing of Mo, Zr (H2C2O4) and Pd (HEDTA).

[3] = as above; settings: for Distribution coefficients Sr: 0.1 mol/L in TPH/1-octanol (90:10)
Experimental: as §1
The composition of the HLLW corresponds to a burn-up of 33 GWd/tHM, the generated volume of HLLW being 5000 1/t of fuel. […] Oxalic acid and N-(2-hydroxyethyl)ethylenediaminotriacetate (HEDTA) were also added before the extraction tests.
as §4, §5, §6, §6

[4] = Oxalic acid 0.2 mol/L, HEDTA 0.05 mol/L, TBP 0.5 mol/L
[5] = Oxalic acid 0.2 mol/L, HEDTA 0.05 mol/L, TBP No
[6] = Oxalic acid 0.3 mol/L, HEDTA 0.05 mol/L, TBP 0.5 mol/L
[7] = Oxalic acid 0.3 mol/L, HEDTA 0.05 mol/L, TBP No
[8] = Oxalic acid No, HEDTA No, TBP 0.5 mol/L
[9] = Oxalic acid No, HEDTA No, TBP No

## 2-Dioctylcarbamoylmethoxy-N-[3-[3-(2-dioctylcarbamoyl-methoxyacetylamino)propoxy]propyl]acetamide [Compound 18]
[1]; [4]
  Distribution coefficients Cr: 0.006
  Distribution coefficients Cu: 0.085
  Distribution coefficients Fe: 0.001
  Distribution coefficients Ni: 0.015
[1]; [5]
  Distribution coefficients Cr: 0.006
  Distribution coefficients Cu: 0.075
  Distribution coefficients Fe: 0.001
  Distribution coefficients Ni: 0.014
[1]; [6]
  Distribution coefficients Cr: 0.006
  Distribution coefficients Cu: 0.093
  Distribution coefficients Fe: 0.009
  Distribution coefficients Ni: 0.015
[1]; [7]
  Distribution coefficients Cr: 0.006
  Distribution coefficients Cu: 0.083
  Distribution coefficients Fe: 0.001
  Distribution coefficients Ni: 0.014
[1]; [8]
  Distribution coefficients Cr: 0.006
  Distribution coefficients Cu: 0.067
  Distribution coefficients Fe: 0.001
  Distribution coefficients Ni: 0.014
[1]; [9]
  Distribution coefficients Cr: 0.006
  Distribution coefficients Cu: 0.064
  Distribution coefficients Fe: 0.001
  Distribution coefficients Ni: 0.014
Radiolytic stability
  stability against radiolysis: very stable against radiolysis

## 2-Dioctylcarbamoylmethoxy-N-[3-[(2-dioctylcarbamoyl-methoxy-acetylamino)methyl]benzyl]acetamide [Compound 4]
[2]; [4]
  Distribution coefficients Dy: 86
  Distribution coefficients Sb: 0.012
  Distribution coefficients Sn: 0.0087
  Distribution coefficients Tb: 54
  Distribution coefficients Te: 0.0012
[2]; [5]
  Distribution coefficients Dy: 171
  Distribution coefficients Sb: 0.011
  Distribution coefficients Sn: 0.0076
  Distribution coefficients Tb: 153
  Distribution coefficients Te: 0.0014
[2]; [6]
  Distribution coefficients Dy: 184
  Distribution coefficients Sb: 0.011
  Distribution coefficients Sn: 0.0072
  Distribution coefficients Tb: 77
  Distribution coefficients Te: 0.0011
[2]; [7]
  Distribution coefficients Dy: 195
  Distribution coefficients Sb: 0.012
  Distribution coefficients Sn: 0.0092
  Distribution coefficients Tb: 107
  Distribution coefficients Te: 0.0012
[2]; [8]
  Distribution coefficients Dy: 64
  Distribution coefficients Sb: 0.011
  Distribution coefficients Sn: 0.0089
  Distribution coefficients Tb: 57
  Distribution coefficients Te: 0.0012
[2]; [9]
  Distribution coefficients Dy: 141
  Distribution coefficients Sb: 0.012
  Distribution coefficients Sn: 0.0073
  Distribution coefficients Tb: 123
  Distribution coefficients Te: 0.0011
[3]
  factor by which the Sr distribution coefficient is lower than that obtained with TODGA: 10
[3]; 0.1 mol/L in TPH/1-octanol (90:10)%vol, summary of all conditions
  Dsr: < 0.13
[3]; [4]
  Distribution coefficients Sr: 0.071
[3]; [5]
  Distribution coefficients Sr: 0.110
[3]; [6]
  Distribution coefficients Sr: 0.099
[3]; [7]
  Distribution coefficients Sr: 0.132
[3]; [8]
  Distribution coefficients Sr: 0.061
[3]; [9]
  Distribution coefficients Sr: 0.071
Radiolytic stability
  stability against radiolysis: very stable against radiolysis
